Results on twelve compounds are retold here after patent US20070123473A1, “Glycosylated steroid derivatives with anti-migratory activity” (priority 2003, published 2007).

Experiment [1] relates to PC-3 (prostate cancer). Description: Cell migration of cancer cells (phase-contrast videomicroscopy), PC-3. Type of experiment: cell-based, human. How it is done: (§1) Cells of different types of cancer, i.e. U-373 MG (Glioma), Hs578T (breast cancer), PC-3 (prostate cancer) and A549 (lung cancer) were seeded on culture flask 48 hours before the migration experiment. On the test day, cells were treated with or without compounds UBS3270, UBS3285, UBS3327, UBS3328, UBS3501, UBS3585, UBS3597, UBS3976, UBS4066, UBS4095, UBS4104, UBS4109, UBS4209 and UBS4373 in closed Falcon dishes containing a buffered medium at a controlled temperature (37.0±0.1° C.) for 12 or 24 hours. The compounds were administered at 4 concentrations (10^−7 M to 10^−10 M). Migration of the cells was observed by means of a CCD-camera mounted on a phase-contrast microscope. A statistical analyse of the migration, with the non-parametric Mann-Whitney test, was established for 25%-50% of the most motile cells and for the entire cell population for UBS3270, UBS3285, UBS3327, UBS3328, UBS3501, UBS3585, UBS3597, UBS3976, UBS4066, UBS4095, UBS4104, UBS4109, UBS4209 and UBS4373 compounds. The table C below illustrates the anti-migratory effect of the compound according to the invention.

The subject of experiment [2] is U-373 MG (Glioma). Description: Cell migration of cancer cells (phase-contrast videomicroscopy), U-373 MG. The class given is cell-based, human. Here is the method:
as §1

The test system of experiment [3] is A549 (lung cancer). The experiment is described as follows: Cell migration of cancer cells (phase-contrast videomicroscopy), A549. Type of experiment: cell-based, human. The note with it: 25% of most motile cells. How it is done:
as §1

Experiment [4] concerns P388 lymphoma. The experiment is described as follows: Survival of P388 lymphoma bearing mice (T/C index). The class given is in vivo, mouse. The note with it: 40 mg/kg subcutaneously, T/C of 130% or more = significant prolongation of survival. How it is done: The compounds UBS3328 and UBS3501 were evaluated on the aggressive P388 lymphoma cancer model. When leukemic P388 cells of lymphoblastic origin (Pihl A. UICC Study Group on chemosensitivity testing of human tumors. Problems-applications-future prospects. Int J Cancer. 1986 Jan. 15; 37(1):1-5) are grafted subcutaneously, they develop as very biologically aggressive anaplastic lymphomas markedly metastasizing first into the liver, then in the lungs and occasionally in kidneys. The mice suffering from P388 lymphomas usually die about 2 weeks after the cell injection. The P388 lymphoma was thus used as a model representative of a clinically terminal state of cancer.
The model was performed with 5 mice per group and the compounds UBS3328 and UBS3501 were injected subcutaneously at 40 mg/kg for 4 days, two times per day, for the two first weeks post graft followed by one administration everyday, one times per day for the third week post graft.
The effect of the compounds UBS3328 and UBS3501 on the survival of the P388 cancer bearing mice is evaluated following the analysis of the T/C index. T/C index is calculated by dividing the median day of death in a treated group T by the median day of death in the control group C. T/C values of 130% or more (i.e. a prolongation of mice survival of 30% or more) indicate a significant prolongation of survival.

For experiment [5], the system named is Hs578T (breast cancer). Description: Cell migration of cancer cells (phase-contrast videomicroscopy), Hs578T. Type of experiment: cell-based, human. How it is done: as §1
Where [6] appears, read: 12 hours, entire cell population, 10^−9 M.
[7] abbreviates: 24 hours, 25% of most motile cells, 10^−9 M.

Take `COc1ccc(OC)c(C2CC3C4CC=C5CC(OC6O[C@H](CO)[C@@H](O[C@@H]7O[C@H](CO)[C@H](O)[C@H](O)[C@H]7O)[C@H](O)[C@H]6O)CCC5(C)C4CCC3(C)C2C(C)=O)c1` (some centres unmarked) [UBS3976]: the “Max. effects (anti-migratory effect)” value in experiment [1] (12 hours, 25% of most motile cells, 10^−8 M) was −51%/p < 0.001; in experiment [2] (24 hours, 25% of most motile cells, 10^−10 M) it was −46%/p < 0.001.
As for `COc1ccc(OC)c(C2CC3C4CC=C5CC(OC6O[C@H](CO[C@H]7O[C@H](CO)[C@@H](O)[C@H](O)[C@H]7O)[C@@H](O)[C@H](O)[C@H]6O)CCC5(C)C4CCC3(C)C2C(C)=O)c1` (some centres unmarked) [UBS3328], the “Max. effects (anti-migratory effect)” value in experiment [3] (24 hours, 10^−7 M) is −40%/p < 0.001; in experiment [2] (12 hours, entire cell population, 10^−10 M), −27%/p < 0.001. Besides, the “T/C index (median day of death treated / control)” value in experiment [4] was found to be 135%.
With `COc1ccc(OC)c(C2CC3C4CC=C5CC(OC6O[C@@H](C)[C@@H](O)[C@@H](O)[C@@H]6O)CCC5(C)C4CCC3(C)C2C(C)=O)c1` (some centres unmarked) [UBS3501], the “T/C index (median day of death treated / control)” value in experiment [4] is on record as 141%. In addition, the “Max. effects (anti-migratory effect)” value is on record as −23%/p < 0.001 in experiment [1] (12 hours, 25% of most motile cells, 10^−7 M) and −38%/p = 0.01 in experiment [2] (24 hours, 25% of most motile cells, 10^−8 M).
Consider `COc1ccc(OC)c(C2CC3C4CC=C5CC(O[C@@H]6O[C@H](CO)[C@@H](O)[C@H](O)[C@H]6NC(C)=O)CCC5(C)C4CCC3(C)C2C(C)=O)c1` (some centres unmarked) [UBS4104], for which the “Max. effects (anti-migratory effect)” value in experiment [3] (24 hours, 10^−10 M) is listed as −46%/p < 0.001; in experiment [2] (12 hours, 50% of most motile cells, 10^−10 M), −23%/p < 0.001.
For the compound `COc1ccc(OC)c(C2CC3C4CC=C5CC(OC6O[C@H](CO)[C@@H](O[C@H]7O[C@H](CO)[C@@H](O)[C@H](O)[C@H]7O)[C@H](O)[C@H]6O)CCC5(C)C4CCC3(C)C2C(C)=O)c1` (some centres unmarked) [UBS4095], the “Max. effects (anti-migratory effect)” value in experiment [2] (24 hours, entire cell population, 10^−9 M) is recorded as −27%/p < 0.001.
On to `COc1ccc(OC)c(C2CC3C4CC=C5CC(OC6O[C@H](CO)[C@@H](O[C@@H]7O[C@H](CO)[C@@H](O)[C@H](O)[C@H]7O)[C@H](O)[C@H]6O)CCC5(C)C4CCC3(C)C2C(C)OC2O[C@H](CO)[C@@H](O[C@@H]3O[C@H](CO)[C@@H](O)[C@H](O)[C@H]3O)[C@H](O)[C@H]2O)c1` (some centres unmarked) [UBS4109], for which, in experiment [1] (setting [6]), the “Max. effects (anti-migratory effect)” value is on record as −34%/p < 0.001.
Consider `COc1ccc(OC)c(C2CC3C4CC=C5CC(OC6O[C@@H](C)[C@@H](O)[C@@H](O)[C@@H]6O)CCC5(C)C4CCC3(C)C2C(C)OC2O[C@@H](C)[C@@H](O)[C@@H](O)[C@@H]2O)c1` (some centres unmarked) [UBS4066], for which the “Max. effects (anti-migratory effect)” value in experiment [1] (setting [7]) is −45%/p < 0.001; in experiment [5] (12 hours, 25% of most motile cells, 10^−9 M) it was −29%/p < 0.001.
Regarding `COc1ccc(OC)c(C2CC3C4CC=C5CC(OC6O[C@H](CO[C@H]7O[C@H](CO)[C@@H](O)[C@H](O)[C@H]7O)[C@@H](O)[C@H](O)[C@H]6O)CCC5(C)C4CCC3(C)C2C(C)OC2O[C@H](CO[C@H]3O[C@H](CO)[C@@H](O)[C@H](O)[C@H]3O)[C@@H](O)[C@H](O)[C@H]2O)c1` (some centres unmarked) [UBS4373], the “Max. effects (anti-migratory effect)” value in experiment [2] (setting [6]) was −24%/p < 0.001.
For `COc1ccc(OC)c(C2CC3C4CC=C5CC(OC6O[C@H](CO)[C@@H](O)[C@H](O)[C@@H]6O)CCC5(C)C4CCC3(C)C2C(C)=O)c1` (some centres unmarked) [UBS3270], in experiment [5] (24 hours, 50% of most motile cells, 10^−7 M), the “Max. effects (anti-migratory effect)” value is on record as −27%/p < 0.001.
For the compound `COc1ccc(OC)c(C2CC3C4CC=C5CC(OC6O[C@H](CO)[C@H](O)[C@H](O)[C@H]6NC(C)=O)CCC5(C)C4CCC3(C)C2C(C)=O)c1` (some centres unmarked) [UBS3597], the “Max. effects (anti-migratory effect)” value in experiment [1] (setting [7]) is listed as −31%/p < 0.001.
Take `COc1ccc(OC)c(C2CC3C4CC=C5CC(OC6O[C@H](CO)[C@@H](O[C@@H]7O[C@H](CO)[C@H](O)[C@H](O)[C@H]7O)[C@H](O)[C@H]6O)CCC5(C)C4CCC3(C)C2C(C)OC2O[C@H](CO)[C@@H](O[C@@H]3O[C@H](CO)[C@H](O)[C@H](O)[C@H]3O)[C@H](O)[C@H]2O)c1` (some centres unmarked) [UBS4209]: the “Max. effects (anti-migratory effect)” value in experiment [3] (12 hours, 10^−8 M) is given as −26%/p < 0.001; in experiment [5] (24 hours, 25% of most motile cells, 10^−7 M) it was −26%/p < 0.001.
Take `COc1ccc(OC)c(C2CC3C4CC=C5CC(OC6O[C@H](CO)[C@@H](O)[C@H](O)[C@H]6NC(C)=O)CCC5(C)C4CCC3(C)C2C(C)=O)c1` (some centres unmarked) [UBS3585]: the “Max. effects (anti-migratory effect)” value in experiment [5] (24 hours, entire cell population, 10^−7 M) was −27%/p < 0.001.
